Measured values from US20230257355A1, “HYDROXAMIC ACID-CONTAINING COMPOUND, AND PREPARATION METHOD AND USE THEREOF” (CHINA PHARMACEUTICAL UNIVERSITY, priority 2020, published 2023).

Experiments:
[1] = test system: chronic depression rat model established by reserpine; assay: Open field test (OFT) in reserpine chronic depression rat model; format: in vivo; settings: rats
Protocol: (§1) In the present disclosure, a chronic depression rat model was established by reserpine (reference: NeurotoxRes, 2014, doi: 10.1007/s12640-013-9454-8). Specific experimental steps were as follows: In a normal group, 8 rats were randomly selected and raised normally. Rats in the remaining groups each were injected intraperitoneally with reserpine at 0.2 mg/kg once every day for three days. Rats in the remaining groups each were intraperitoneally injected with the compound I-1 at different doses (3 mg/kg, 6 mg/kg, and 12 mg/kg), a positive drug amitriptyline (6 mg/kg), or no drug. Two weeks after the administration, the OFT was performed (reference: China Pharmacy, 2016, 27 (19): 2697-2699), and after the OFT was completed, the SPT was performed.

[2] = test system: ApoE-knockout mice AS model; assay: Plasma lipid indexes in ApoE-knockout AS mice; format: in vivo; settings: versus non-administration Control group
Protocol: (§2) The mice were randomly divided into 6 groups, with 5 mice in each group. The groups were intraperitoneally injected respectively with a blank solvent, a blank solvent, 12 mg/kg compound I-1, and 40 mg/kg compound I-1 once every day for 8 weeks. After the experiment was completed, the animals were sacrificed and main arteries were collected.

[3] = test system: ApoE-knockout mice AS model; assay: Anti-AS effect: aortic plaque area in ApoE-knockout mice on high-fat diet; format: in vivo
Protocol: as §2, with “collected. The main arterial vessels were directly observed and photographed under a microscope. […] The collected arterial vessels were subjected to lipid staining with ORO and then photographed under a microscope, and image analysis was performed.” for “collected.”

[4] = molecular target: T1, ASM (Homo sapiens, UniProt P17405); assay: Inhibition of compounds on ASM activity (cell protein extract, fluorescently-labeled substrate); format: biochemical; settings: for IC50: protein extracted from cultivated cells, fluorescently-labeled substrate
T1 construct: A protein in cultivated cells was extracted, a buffer and a fluorescently-labeled reaction substrate were added; endogenous in cells
T1 sequence (P17405 47-631): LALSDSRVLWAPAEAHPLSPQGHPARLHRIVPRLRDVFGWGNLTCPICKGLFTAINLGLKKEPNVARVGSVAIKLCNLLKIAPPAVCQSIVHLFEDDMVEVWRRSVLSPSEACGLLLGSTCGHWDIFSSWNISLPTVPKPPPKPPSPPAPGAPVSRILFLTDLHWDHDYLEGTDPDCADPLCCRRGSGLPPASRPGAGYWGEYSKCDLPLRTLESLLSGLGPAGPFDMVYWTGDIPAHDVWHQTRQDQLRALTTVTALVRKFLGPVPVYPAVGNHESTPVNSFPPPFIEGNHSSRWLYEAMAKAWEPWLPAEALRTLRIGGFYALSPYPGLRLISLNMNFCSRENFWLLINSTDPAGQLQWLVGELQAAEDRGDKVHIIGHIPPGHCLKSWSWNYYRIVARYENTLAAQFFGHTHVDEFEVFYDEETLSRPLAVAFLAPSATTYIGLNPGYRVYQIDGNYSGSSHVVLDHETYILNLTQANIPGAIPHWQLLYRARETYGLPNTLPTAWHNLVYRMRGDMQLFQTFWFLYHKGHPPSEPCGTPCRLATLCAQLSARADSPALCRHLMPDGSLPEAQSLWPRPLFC
Protocol: ASM can hydrolyze sphingomyelin to produce ceramides in cells. For a specified amount of a fluorescently-labeled reaction substrate (Avanti Corporation, USA), different ASM activities catalyze the generation of a product at different amounts. Thus, an ASM activity level can be investigated by detecting a product content. The experiment design of the present disclosure is carried out according to the above principle.
A blank control group was set. After the reaction was completed, fluorescence analysis was performed, and finally an IC50 value of the compound was calculated.
A blank control group was set. After the reaction was completed, fluorescence analysis was performed.

[5] = test system: chronic depression rat model established by reserpine; assay: Sucrose preference test (SPT) in reserpine chronic depression rat model; format: in vivo; settings: rats
Protocol: as §1, with “performed. After the OFT was completed, all rats were first trained to drink 10 g/L sucrose-containing water. That is, tap water was replaced with 10 g/L sucrose-containing water within the first 48 h, then the water and food were deprived for 20 h, and then 10 g/L sucrose-containing water was provided for drinking and the drinking amount within 24 h was calculated.” for “performed.”

[6] = i.p. 3, 6, 12 mg/kg, two weeks after administration

Row | Structure (SMILES) | IC50 [4] [nM] | inhibition at 1 µM [4] [%] | inhibition at 10 µM [4] [%] | also measured
1 | O=C(NO)c1ccc2ncn(-c3ccc(OCc4ccc(Cl)cc4)cc3)c2c1 [Compound I-1, 1-(4-((4-chlorobenzyl)oxy)phenyl)-N-hydroxy-1H-benzo[d]imidazole-6-carboxamide] | 470 |  |  | OFT behavioral indexes versus amitriptyline (6 mg/kg) ([1]; high-dose 12 mg/kg i.p.): comparable to that of rats in the amitriptyline control group; OFT frequency of grooming [1, 6]: significantly improved; OFT frequency of upright [1, 6]: significantly improved; OFT times passing the grid [1, 6]: significantly improved; OFT total time in center [1, 6]: significantly improved; HDL in plasma [2]: no impact; LDL level in plasma [2]: significantly increased; Total TG in plasma [2]: no impact; Total cholesterol in plasma [2]: no impact; Plaque area of AS (ORO lipid staining) ([3]; 12 mg/kg i.p. once daily for 8 weeks): significantly reduce; Plaque area of AS (ORO lipid staining) ([3]; 40 mg/kg i.p. once daily for 8 weeks): significantly reduce; Aortic arch plaque area (direct microscopy) ([3]; i.p. once daily for 8 weeks, different doses (12 and 40 mg/kg)): significantly reduced; SPT effect versus positive control amitriptyline (6 mg/kg) ([5]; high-dose 12 mg/kg i.p.): slightly lower than that of the positive control drug amitriptyline; SPT effect versus model group ([5]; high-dose 12 mg/kg i.p., p < 0.01): significantly different from that of the model group; SPT uptake capacity for sucrose-containing water ([5]; i.p., 10 g/L sucrose water, drinking amount within 24 h): significantly restored
2 | O=C(NO)c1ccc2ncn(-c3ccc(OCc4ccc(C(F)(F)F)cc4)cc3)c2c1 [Compound I-3] | 3680 |  |  | 
3 | O=C(NO)c1ccc2ncn(CCCOCc3ccc(C(F)(F)F)cc3)c2c1 [Compound I-5] | 2780 |  |  | 
4 | O=C(NO)c1ccc2ncn(-c3ccc(OCc4cccc(C(F)(F)F)c4)cc3)c2c1 [Compound I-6] | 1240 |  |  | 
5 | O=C(NO)c1ccc2ncn(-c3ccc(OCc4ccc(Cl)c(C(F)(F)F)c4)cc3)c2c1 [Compound I-7] | 390 |  |  | 
6 | O=C(NO)c1ccc2ncn(-c3ccc(OCc4ccc(C(F)(F)F)cc4C(F)(F)F)cc3)c2c1 [Compound I-8] | 1160 |  |  | 
7 | O=C(NO)c1ccc2ncn(-c3ccc(OCc4cc(C(F)(F)F)cc(C(F)(F)F)c4)cc3)c2c1 [Compound I-9] |  | 80 | 93 | 
8 | O=C(NO)c1ccc2ncn(-c3ccc(OCc4ccc(F)cc4)cc3)c2c1 [Compound I-10] |  | 20 | 50 | 
9 | N#Cc1ccc(COc2ccc(-n3cnc4ccc(C(=O)NO)cc43)cc2)cc1 [Compound I-11] |  | 8 | 83 | 
10 | COc1ccc(COc2ccc(-n3cnc4ccc(C(=O)NO)cc43)cc2)cc1 [Compound I-12] |  | 70 | 82 | 
11 | O=C(NO)c1ccc2ncn(-c3ccc(OCc4ccccn4)cc3)c2c1 [Compound I-13] |  | 14 | 22 | 
12 | O=C(NO)c1ccc2ncn(-c3ccc(OCc4ccc(C(F)(F)F)cn4)cc3)c2c1 [Compound I-14] |  | 24 | 76 | 
13 | O=C(NO)c1ccc2ccn(-c3ccc(OCc4ccc(C(F)(F)F)cc4)cc3)c2c1 [II-1, 1-(4-((4-trifluoromethylbenzyl)oxy)phenyl)-N-hydroxy-1H-indole-6-carboxamide] |  | 74 | 91 | 
14 | COc1ccc(COc2ccc(-n3ccc4ccc(C(=O)NO)cc43)cc2)cc1 [II-2, 1-(4-((4-methoxybenzyl)oxy)phenyl)-N-hydroxy-1H-indole-6-carboxamide] |  | 69 | 88 | 
